From US20240398823A1, “DUAL INHIBITOR OF HISTONE DEACETYLASE 6 AND HEAT SHOCK PROTEIN 90” (TAIPEI MEDICAL UNIVERSITY, priority 2021, published 2024)

Experiments:
[1] = tested on: acetylation of α-tubulin and histone H3; assay: Western blot of α-tubulin and histone H3 acetylation in HCT116; type: cell-based, human; details: HCT116, 0.25-1 μM, 6 hours
Description: (§1) The ability of α-tubulin and histone H3 acetylation was measured.
(§2) The effects of the HSP90/HDAC6 dual inhibitors as described in Synthesis Examples (such as Compounds 63, 64, and 66 to 76) on several factors were evaluated. Cells were lysed in RIPA buffer (Thermo Fisher Scientific, Wal-tham, MA, USA) and protease inhibitor (Roche, Basel, CH). Sample were further separated in 8% or 15% SDS-PAGE and transferred to nitrocellulose membrane and blocked with 5% skim milk (w/v in PBS). Nitrocellulose membranes were then incubated with primary antibodies against the following antigens: HSP90, Src, AKT, Rb, phosphorylated Rb (p-Rb), FAK, HSP70, α-tubulin acetylation, acetyl histone H3, phosphorylated STAT1 (p-STAT1), STAT1 (Cell signaling, Danvers, MA, USA), α-tubulin, Histone H3 (Genetex, Irvine, USA), IDO (Santa Cruz Biotechnology Dallas, TX, USA) and PD-L1 (Novus, Littleton, CO, USA) at 4° C. for overnight. The target proteins were visualized by using HRP-conjugated secondary antibodies (Jackson ImmunoResearch Laboratories, West Grove, PA, USA) and enhanced chemiluminescence kit (Thermo Fisher Scientific, Waltham, MA, U.S.A.).
(§3) The ability of Compound 75 on the acetylation of α-tubulin and histone H3 was evaluated. HCT116 cells were administered with Compound 75 for 6 hours and analyzed by western blot. […] Next, whether Compound 75 inhibited HSP90 was evaluated. […]

[2] = tested on: HSP90 client proteins (HSP70, Src, AKT, Rb, FAK); assay: Western blot of HSP70 and HSP90 client proteins in HCT116; type: cell-based, human; details: HCT116, 0.25-1 μM, 48 hours
Description: as §1, §2, §3

[3] = tested on: PD-L1 expression in HCT116, LS174T, Mia paca-2, BXPC3, A549 and CT26 cells; assay: IFN-γ-induced cell membrane PD-L1 in different cancer cell lines by flow cytometry; type: cell-based, human; mouse; details: Mia paca-2, BXPC3, A549, CT26, co-treated 48 hours
Description: The cells were tested in 6-well plates with 32×10^4 cells/well and co-treated with Compound 75 for 48 hours and analyzed by flow cytometry. Bar, SD. […] The effects of the HSP90/HDAC6 dual inhibitors as described in Synthesis Examples (such as Compounds 63, 64, and 66 to 76) on PD-L1 expression were evaluated. Cells were seeded in 6-well plates (3.2×10^5 cells/well) and treated on the next day with […] and compounds or DMSO (vehicle) at indicated concentrations for 48 h. The treated cells were suspended (3×10^5 cells/tube) and stained with PD-L1 antibody (Invitrogen, Waltham, USA) and FITC-conjugated secondary antibodies on ice for 1 h. The fluorescence signal of the cells was analyzed by FASCalibur flow cytometer and CellQuest software (BD Biosciences, San Jose, CA, USA). Using flow cytometry, whether Compound 75 could downregulate […]-induced PD-L1 performance in different cancer cell lines was evaluated, namely human colorectal cancer cell lines (HCT116 and LS174T), human pancreatic cancer cell lines (Mia paca-2 and BXPC3), human lung cancer cell line (A549) and mouse colorectal cancer cell line (CT26).

[4] = Toxicity, body weight and blood counts in BALB/c mice with CT26 tumors; type: in vivo
[5] = tested on: T cells in blood (CD8+, CD4+, Treg); assay: Peripheral blood immune cells by flow cytometry in CT26 tumor mice; type: in vivo, mouse; details: day 25, flow cytometry, 10, 25, 50 mg/kg
Description: FIGS. 10A to 10C show immune cell regulation of peripheral blood by Compound 75. BALB/c mice with CT26 tumors were treated with 10, 25 and 50 mg/kg of Compound 75 every two days, and blood was collected from the heart and analyzed by flow cytometry on day 25 for cytotoxicity T cells (CD3+CD8+) (as shown in FIG. 10A), helper T cells (CD3^+CD4^+) (as shown in FIG. 10B) and regulatory T cells (CD3^+CD4^+FOXP3^+) (as shown in FIG. 10C). Data are expressed as mean±S.D. N values greater than 3. * P<0.05; ** P<0.01; *** P<0.001, compared with the control group.
The reasons for the decrease of Treg in blood were further investigated.

CT26 tumor recurrence = CT26 tumor recurrence after tumor removal and re-inoculation; type: in vivo, mouse; details: 50 mg/kg every two days, day 37
Description: Stage 1: CT26 was injected subcutaneously into the left dorsum of immunocompetent mice (BALB/c), and Compound 75 treatment was started after 3 days, administered intravenously at a dose of 50 mg/kg every two days (7 doses in total). After tumor removal, tumor cells were isolated for in vitro culture (untreated tumor control-tumor; Compound 75-treated tumor: Compound 75-tumor). Stage 2: On day 17, the isolated tumor cells were injected subcutaneously into the right side of the mouse back and the mice were sacrificed on day 37 (as shown in FIG. 14A). […] Data are mean t S.E.M. N values greater than 4.
Whether Compound 75 induces the performance of memory T cells to prevent tumor recurrence was further investigated. Mouse colorectal cancer cells (CT26) were inoculated into the back of immunocompetent mice (BALB/c) and gave control or Compound 75 (50 mg/kg) every two days after 3 days, and removed the tumors on day 14. The cancer cells were isolated and cultured in vitro. The isolated cancer cells were re-injected into the back of the mice on day 17 and the mice were sacrificed on day 37 (FIG. 14A). […] However, in the control group (control/control-tumor), 4 out of 5 cancer recurrences occurred and the tumors were larger (FIGS. 14B, 14C and 14D).

[6] = CT26 in Balb/c, 10, 25, 50 mg/kg i.v. every two days

Q: With `COc1ccc(N(Cc2ccc(C(=O)NO)cc2)C(=O)c2cc(C(C)C)c(O)cc2O)cc1` [Compound 75, 2,4-Dihydroxy-N-(4-hydroxycarbamoyl-benzyl)-5-isopropyl-N-(4-methoxy-phenyl)-benzamide] as the molecule, how does the “acetylation of α-tubulin and histone H3” value [1] read?
A: enhances the acetylation of α-tubulin and histone H3

Q: What about the HSP70 expression [2] of the same molecule?
A: an increase in HSP70 expression

Q: And the “protein levels of client proteins (Src, AKT, Rb and FAK)” value [2]?
A: a downregulation of the protein levels of client proteins

Q: What about the “IFN-γ-induced cell membrane protein PD-L1 expression” value [3] of the same molecule?
A: inhibits all IFN-7-induced cell membrane protein PD-L1 expression

Q: What about the body weight [4, 6] of the same molecule?
A: no significant change in body weight

Q: What about the toxicity in mice [4, 6] of the same molecule?
A: no significant toxicity

Q: What about the “white blood cell, lymphocyte, red blood cell, hemoglobin and platelet counts, lymphocyte percentage” value ([4]; blood from heart on day 25, 10, 25, 50 mg/kg every two days, versus control group) of the same molecule?
A: not significantly different

Q: And the “organ toxicity or hematotoxicity” value ([4]; immunocompetent mice)?
A: does not cause significant organ toxicity or hematotoxicity

Q: What about the “immunosuppressive Treg cell level in blood” value [5] of the same molecule?
A: could be reduced in a concentration dependent manner

Q: What about the “percentage of CD4+ helper T cells in blood” value [5] of the same molecule?
A: did not affect

Q: And the “percentage of CD8+ cytotoxicity T cells in blood” value [5]?
A: did not affect

Q: What about the “cancer recurrence, re-inoculated with Compound 75-treated cancer cells” value (CT26 tumor recurrence; group comp.75/comp.75-tumor) of the same molecule?
A: only one mouse suffered cancer recurrence

Q: What about the “cancer recurrence, re-inoculated with control cancer cells” value (CT26 tumor recurrence; group comp.75/control-tumor) of the same molecule?
A: only one mouse suffered cancer recurrence
